From patent EP0532759A1, “NOVEL ALLYL ALCOHOL DERIVATIVE” (TSUMURA & CO., priority 1991, dated 1992)
Like-named read-outs stand apart in the source and are kept apart here. Marks after values point to notes of the source that are not given here.

Tests used:
ICR mouse = assay: Arachidonic acid ear lobe edema inhibiting test; type: in vivo; conditions: 1 mg per 20 µl acetone applied to auricle; 2 mg arachidonic acid 30 min later; ear thickness after one hour; versus control
Method: 1 mg of the novel allyl alcohol derivative per 20 µl of acetone were applied to the auricle on the inside of the right of an ICR mouse (female, 8 - 11 weeks old). 30 min after the application, 10 µl of an acetone solution containing 2 mg of arachidonic acid was applied to the same site, and one hour after the application of the acetone solution, the thickness of the ear was measured by means of a dial thickness gauge. An equal weight of acetone was applied to the auricle on the left side, and measurement was conducted in the same manner as that described above, and […] was regarded as swelling of the ear. Further, a group wherein the solvent was applied instead of the sample was used as a control, and the ear lobe edema inhibition was determined by the following equation. [formula]

[1] = test system: microvascular endothelial cells derived from human caul; assay: Proliferation and migration of microvascular endothelial cells (Boyden chamber, EGF); type: cell-based; conditions: Endothelial cell, 10 µM/ml compound, 10 ng/ml EGF, cells that came out into the lower chamber, read-out: percentage inhibition
Method: 5 x 10⁴ microvascular endothelial cells derived from human caul were placed in an upper chamber of a Boyden chamber, and 10 ng/ml of EGF was added as a control to a lower chamber separated from the upper chamber by means of a filter having a pore size of 5 µm (a polycarbonate filter manufactured by Nucleobore). 10 ng/ml of EGF and 10 µM/ml of the compound of the present invention were added to the drug administration group . The number of cells which had come out into the lower chamber was measured in terms of cells per HPF […].

balb/c 3T3 cells = assay: Inhibition of EGF-accelerated fibroblast growth (3H-thymidine incorporation); type: cell-based; conditions: 0.5 µg per hole compound, 50 pg per hole mouse EGF
Method: A culture solution (hereinafter referred to as "CS DMEM") containing 10 % calf serum adjusted in such a manner that fibroblast (balb/c 3T3 cells) was contained in a concentration of 2.5 x 10⁴ cells per 0.5 ml was incubated on a 24-hole plate in an amount of 1 ml per hole. After the fibroblast was saturated in a monolayer state, cultivation was conducted at 37°C for 12 hr in 1% CS DMEM instead of the above medium through the use of 5 % CO₂. 0.5 µg per hole of the compound of the present invention and 50 pg per hole of mouse EGF were added thereto, and the cultivation was further conducted for 16 hr. ³H-thymidine in an amount of 0.5 µCi/50 µl/well was added thereto, and the mixture was cultivated for 8 hr. Then, the culture solution was removed, and washing was conducted with a cooled isotonic phosphate buffer. A 5 % cold trichloroacetic acid was added thereto, and the mixture was allowed to stand for 30 min. The supernatant was removed, and the residue was dissolved in a 0.5 M sodium hydroxide solution. The solution was neutralized with 0.5 M hydrochloric acid, a scintillation cocktail was added thereto, and counting was conducted by means of a liquid scintillation counter. The radioactivity of ³H-thymidine incorporated into the cells accompanying the growth was measured to study the function of the novel allyl alcohol on the growth of the cell.

LD50 (acute toxicity) = conditions: in vivo, mouse, 72 hr after administration, read-out: LD₅₀
Method: A suspension of the compound of the present invention in a 2 % polysorbate 80 physiological saline (prepared by dissolving the compound of the present invention in polysorbate 80 in an amount of 2 % of the whole amount of the solution and gradually adding and mixing physiological saline therewith) was intravenously and orally administered to a mouse, and 72 hr after the administration, the LD₅₀ was calculated based on whether the mouse had survived or was dead. In the calculation, the up-and-down method was used for the intravenous administration, while the Litchfield-Wilcoxon method was used for the oral administration.

[2] = test system: platelet-rich plasma (PRP); assay: Platelet aggregation inhibition test (Born method, in vitro); type: cell-based; conditions: Rattus norvegicus; for inhibition at 5 µM: compound 5 µM; for inhibition at 20 µM: compound 20 µM
Method: Blood was collected from a rat subjected to fasting for 12 hr so that the volume of 3.8 % sodium citrate became 1/10. The collected blood was centrifuged at room temperature and 159 x G for 10 min to collect a platelet-rich plasma (PRP). The remaining blood was centrifuged at room temperature and 1800 x G for 10 min to collect PPP (platelet poor plasma). The number of platelets was measured by means of PC-603A manufactured by Erma and adjusted to 3 x 10⁸/ml with PPP. The aggregation capability was measured according to the Born method with the concentration of PRP being 0 % (PPP) and 100 % […] through the use of a 4 channel NKK HEMATRACER aggregation meter. In an in vitro test, the novel allyl alcohol derivative was added in a concentration of 5 µM or 20 µM, the mixture was pre-incubated at 37°C for 3 min. An aggregation inducer was added thereto, and the aggregation capability was measured. Adenine diphosphate (ADP), collagen, epinephrine and arachidonic acid were used as the aggregation inducer. The concentration of the aggregation inducer was 2 µM for ADP, 1 µg/ml for collagen, 400 µM for arachidonic acid and 6 µg/ml of epinephrine. The novel ally] alcohol derivative was applied to the experiment after dissolution in dimethylsulfoxide (DMSO). The final concentration of DMSO thereof was 0.4 %, the addition of DMSO alone in this concentration had no clear effect on the aggregation of the platelet.

rat = assay: Analgesic activity test (Randall-Selitto method, Brewer's yeast); type: in vivo
Method: Experimental was made with "Randall-Selitto" analgesic effect measuring apparatus (manufactured by Ugo Basile in Italy), pressure was applied through a pressure terminal, and the pressure (g) applied at the time showing a wriggling motion in rat was measured as a threshold value for pain. The threshold value for pain was measured for each leg, and rats showing substantially the same degree of threshold value for pain were selected and used for the experiment. A 20 % aqueous Brewer's yeast solution was subcutaneously administered in an amount of 0.1 ml to the right hind paw of the rat, and the threshold value for pain was measured on both legs 30 min and 60 min after the administration of the aqueous solution. At the same time, a suspension of the compound of the present invention in a 2 % polysorbate 80 physiological saline (prepared by dissolving the compound of the present invention in polysorbate 80 in an amount of 2 % of the whole amount of the solution and gradually adding and mixing physiological saline therewith) was intravenously and orally administered, and the threshold value for pain of both legs was measured 15 min, 30 min, 60 min, 90 min and 120 min after the administration. The measurements were compared with the control group, and an increase in the threshold value for pain was regarded as an evidence for the analgesic activity.

cyclooxygenase = assay: Cyclooxygenase inhibitory activity (PGE2 formation from [1-14C] arachidonic acid); type: biochemical; conditions: microsome fraction of rabbit kidney medulla; 37°C, 15 min; PGE2 radioactivity; read-out: IC₅₀
Method: 60 ml of a 0.1 M phosphate buffer (pH: 7.5) containing 1 mM glutathione was added to 7.0 g of medulla of kidney of a rabbit, and the mixture was homogenized through the use of a polytron. The resultant homogenate was centrifuged at 9,000 x G for 20 min to obtain a microsome fraction. This fraction was dissolved in 7 ml of a 0.1 M phosphate buffer (pH: 7.5) containing 1 […] glutathione to give a cyclooxygenase enzyme preparation.
4 mM glutathione, 10 mM tryptophan, 0.25 µM hemoglobin (each in final concentration) and a phosphate buffer (pH: 7.5) were added to 15 µl of the enzyme preparation thus prepared, and [1-¹⁴C] arachidonic acid (5 x 10⁴ dpm) and the compound of the present invention were further added thereto in such a manner that the concentrations were 40 µM, 20 µM, 10 µM and 5 µM, respectively (total amount: […]). The mixture was incubated at 37°C for 15 min, and 1 N hydrochloric acid was added thereto to terminate the reaction. Prostaglandin E₂ (PGE₂) was added thereto as a carrier, and the reaction product was extracted with 2 ml of an ether. The resultant extract was concentrated and applied to thin layer chromatography (development solvent = chloroform : methanol : acetic acid = 18 : 1 : 1) to separate a product. […] The PGE₂ radioactivity was measured by means of a liquid scintillation counter.

5-lipoxygenase = target: T1, 5-lipoxygenase (Rattus norvegicus, UniProt P12527); assay: 5-Lipoxygenase inhibitory activity (5-HETE formation, HPLC); type: biochemical; conditions: enzyme preparation from RBL-1 culture cells; 10 µM arachidonic acid; 37°C, 10 min; read-out: IC₅₀
T1 construct: endogenous in cells; host or cells: RBL-1 cells (sonicated, 105,000 x G supernatant)
T1 sequence (P12527 1-673): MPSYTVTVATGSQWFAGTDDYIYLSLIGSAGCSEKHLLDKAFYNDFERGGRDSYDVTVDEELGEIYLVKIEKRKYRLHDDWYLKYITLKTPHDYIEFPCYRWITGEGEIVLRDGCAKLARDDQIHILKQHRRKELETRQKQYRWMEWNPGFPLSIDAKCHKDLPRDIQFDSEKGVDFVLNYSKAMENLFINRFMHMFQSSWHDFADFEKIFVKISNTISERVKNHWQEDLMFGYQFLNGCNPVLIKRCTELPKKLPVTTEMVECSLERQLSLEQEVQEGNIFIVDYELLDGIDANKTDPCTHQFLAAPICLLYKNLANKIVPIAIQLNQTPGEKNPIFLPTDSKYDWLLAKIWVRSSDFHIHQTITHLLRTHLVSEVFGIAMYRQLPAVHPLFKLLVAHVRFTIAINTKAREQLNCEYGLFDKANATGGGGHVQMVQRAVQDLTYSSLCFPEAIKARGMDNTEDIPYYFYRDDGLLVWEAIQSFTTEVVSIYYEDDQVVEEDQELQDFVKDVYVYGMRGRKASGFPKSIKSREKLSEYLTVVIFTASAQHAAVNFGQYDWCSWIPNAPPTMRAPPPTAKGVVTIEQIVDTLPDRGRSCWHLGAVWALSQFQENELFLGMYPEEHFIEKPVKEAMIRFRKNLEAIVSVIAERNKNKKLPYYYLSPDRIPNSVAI
Method: RBL-1 culture cells were suspended in a 50 mM phosphate buffer (pH: 7.4) containing 1 mM ethylenediaminetetraacetic acid (EDTA) and 10 % ethylene glycol so that the concentration was 5 x 10⁶ cells/ml. The suspension was subjected to an ultrasonic treatment and centrifuged at 10,000 x G for 10 min and further at 105,000 x G for 60 min. The resultant supernatant was used as a 5-lipoxygenase enzyme preparation.
50 mM phosphate buffer, 15 mM calcium chloride, 20 µM indomethacin, 18 mM glutathione, 6 mM adenosine triphosphate (ATP), 10 µM arachidonic acid, the enzyme preparation prepared above and an ethanol solution of the compound of the present invention were placed in a test tube in such a manner that the whole quantity was 0.6 ml and the final concentration was 5 µM, 1 µM and 0.5 µM. A reaction was allowed to proceed at 37°C for 10 min. After the completion of the reaction, 1.2 ml of acetone and 100 µl of 2 N formic acid were added thereto to terminate the reaction. […] The resultant extract was concentrated and dissolved in methanol, and the content of […] in the solution was measured by means of high performance liquid chromatography [column = TSK-gel ODS-80 TM (manufactured by Tosoh Corporation); mobile phase = acetonitrile : water : acetic acid (60 : 40 : 0.02); flow rate = 1 ml/min; ultraviolet rays for detection = 235 nm]. […]

[3] = inducer arachidonic acid 400 µM
[4] = 140 mg/kg, 15 min after administration, control 123
[5] = 140 mg/kg, 30 min after administration, control 115
[6] = 140 mg/kg, 60 min after administration, control 108

CCCCC/C=C/C(O)CCc1ccc(O)c(OC)c1 (stereo not shown) [compound of the present invention]
edema inhibition (ICR mouse): 83%
inhibition at 10 µM [1]: 82%
growth inhibition (balb/c 3T3 cells): 72.9%
LD50 at 72 hr (LD50 (acute toxicity); Intravenous, up-and-down method): 75.6 mg/kg
LD50 at 72 hr (LD50 (acute toxicity); Oral, Litchfield-Wilcoxon method): 1340 mg/kg
inhibition at 5 µM ([2]; inducer ADP 2 µM): 12%
inhibition at 20 µM ([2]; inducer ADP 2 µM): 26%
inhibition at 5 µM [2, 3]: 67%
inhibition at 20 µM [2, 3]: 96%
inhibition at 5 µM ([2]; inducer collagen 1 µg/ml): 21%
inhibition at 20 µM ([2]; inducer collagen 1 µg/ml): 43%
inhibition at 5 µM ([2]; inducer epinephrine 6 µg/ml): 52%
inhibition at 20 µM ([2]; inducer epinephrine 6 µg/ml): 63%
Threshold value for pain (g) (rat; 70 mg/kg, 15 min after administration, control 123): 153^a g
Threshold value for pain (g) (rat; 70 mg/kg, 30 min after administration, control 115): 183^b g
Threshold value for pain (g) (rat; 70 mg/kg, 60 min after administration, control 108): 142^a g
Threshold value for pain (g) (rat; [4]): 190^b g
Threshold value for pain (g) (rat; [5]): 222^b g
Threshold value for pain (g) (rat; [6]): 210^b g
threshold value for pain as compared with the control group (rat; dose of 5 mg/kg, within 15 to 60 min, p < 0.05): significant increase
IC50 (cyclooxygenase): 7.62 µM
IC50 (5-lipoxygenase): 540 nM

Cc1c(N(C)C)c(=O)n(-c2ccccc2)n1C [Aminopyrine, reference compound]
Threshold value for pain (g) (rat; [4]): 190^b g
Threshold value for pain (g) (rat; [5]): 235^b g
Threshold value for pain (g) (rat; [6]): 212^b g
